Measured values: US11370791B2, “Solid polymorphs of a FLNA-binding compound and its hydrochloride salts” (Pain Therapeutics, Inc., priority 2019, dated 2022)
Entries after “also recorded” stand apart in the source; their conditions may differ. Structures can show the parent of a compound that is named as a salt. Where two headings read alike, the source gives them in different places.

What was measured:
[1] = hydration studies, slurries in IPA/water mixtures; type: physicochemical; conditions: for Observations, hydration study: IPA/water
[2] = 1 week stability studies (HPLC purity, XRPD, appearance); type: physicochemical; conditions: for Observations T = 0 / HPLC Purity T = 0: start of stability study
Procedure: Each salt formed was exposed to environments of 40° C./75% RH (open vial), elevated temperature (80° C., open vial) and ambient light (about 22° C. in a closed vial), for 1 week to assess both chemical and physical stability. Resulting solids were analyzed by X-ray powder diffraction (XRPD) to establish if any changes had occurred and by HPLC to determine purity.

[3] = dynamic vapor sorption (DVS); type: physicochemical; conditions: for hygroscopicity by DVS: 0%-90% RH; for hysteresis: at 0% RH
Procedure: Approximately 10 mg of sample was placed into a glass vapor sorption balance pan and loaded into a DVS-1 dynamic vapor sorption balance by Surface Measurement Systems. […] After completion of the sorption cycle, the sample was dried using the same procedure, from 90% RH down to 0% RH. The weight change during the sorption/desorption cycles were plotted, permitting the hygroscopic nature of the sample to be determined.

[4] = solvent solubility screen; conditions: for solubility: 40 °C
[5] = 40° C./75% RH, open vial, dihydrochloride monohydrate
[6] = 40° C./75% RH, dihydrochloride monohydrate
[7] = 80° C., open vial, dihydrochloride monohydrate
[8] = 80° C., dihydrochloride monohydrate
[9] = Ambient (light, about 22° C., closed vial)
[10] = Ambient (light, about 22° C., closed vial), dihydrochloride monohydrate
[11] = ambient, dihydrochloride monohydrate
[12] = between 70% and 0% RH, dihydrochloride monohydrate
[13] = 1,2-dichloroethene, organic solvent or mixture
[14] = 2-MeTHF, organic solvent or mixture
[15] = 2-butanol, organic solvent or mixture
[16] = 2-propanol, organic solvent or mixture
[17] = 2-propanol:water (10%), organic solvent or mixture
[18] = acetone, organic solvent or mixture
[19] = acetone:water (5%), organic solvent or mixture
[20] = acetone:water (20%), organic solvent or mixture
[21] = acetonitrile, organic solvent or mixture
[22] = cyclohexane, organic solvent or mixture
[23] = dimethylacetamide, organic solvent or mixture
[24] = dimethylsulfoxide, organic solvent or mixture
[25] = ethanol, organic solvent or mixture
[26] = ethyl acetate, organic solvent or mixture
[27] = heptane, organic solvent or mixture
[28] = isopropyl acetate, organic solvent or mixture
[29] = methanol, organic solvent or mixture
[30] = methyl acetate, organic solvent or mixture
[31] = methyl ethyl ketone, organic solvent or mixture
[32] = methyl isobutyl ketone, organic solvent or mixture
[33] = tert-butyl methyl ether, organic solvent or mixture
[34] = tetrahydrofuran, organic solvent or mixture
[35] = toluene, organic solvent or mixture

CN1CCC2(CC1)NCC(=O)N2Cc1ccccc1 [HCl Di-Salt Hydrate (Form 2), 1-benzyl-8-methyl-1,4,8-triazaspiro-[4.5]-decan-2-one dihydrochloride monohydrate]
Observations, hydration study ([1]; 5% water, water activity approx. 0.5): White suspension
Observations, hydration study ([1]; 10% water, water activity approx. 0.7): White suspension
Observations, hydration study ([1]; 40% water, water activity approx. 0.9): White suspension
form change by XRPD on stirring in IPA/water mixtures ([1]; various IPA/water mixtures, 24 hours): no form change occurred
Observations T = One week ([2]; 40° C./75% RH, open vial): White solid
HPLC Purity T = One week [2, 5]: 99.8%
polymorphic form by XRPD after 1 week [2, 6]: increase in crystallinity
Observations T = One week [2, 7]: white to off-white/orange; also recorded: Orange solid
polymorphic form by XRPD after 1 week [2, 8]: did not indicate significant changes in polymorphic form
Observations T = One week [2, 9]: White solid
HPLC Purity T = One week [2, 10]: 99.5%
polymorphic form by XRPD after 1 week [2, 11]: did not indicate significant changes in polymorphic form
Observations T = 0 [2]: White solid
HPLC Purity T = 0 ([2]; dihydrochloride monohydrate): 99.4%
hygroscopicity by DVS ([3]; dihydrochloride monohydrate): less hygroscopic than Form 1 between 0% and 50% RH, but more hygroscopic than Form 1 by DVS analysis >50% RH; also recorded: hygroscopic above 50% RH
hysteresis [3]: about 0.4%
water uptake, sorption cycle ([3]; at 50% RH (0% to 50% RH), dihydrochloride monohydrate): about 0.2%
water uptake, sorption cycle ([3]; at 80% RH, dihydrochloride monohydrate): about 9.9%
mass decrease, desorption cycle [3, 12]: 6.77%
post-DVS XRPD analysis ([3]; dihydrochloride monohydrate): increase in crystallinity

CN1CCC2(CC1)NCC(=O)N2Cc1ccccc1 [HCl Di-Salt Hydrate, Form 1, 1-benzyl-8-methyl-1,4,8-triazaspiro-[4.5]-decan-2-one dihydrochloride monohydrate]
Observations T = One week ([2]; 40° C./75% RH, open vial): White solid
HPLC Purity T = One week [2, 5]: 99.0%
polymorphic form by XRPD after 1 week [2, 6]: No significant changes in polymorphic form
HPLC Purity T = One week [2, 7]: 99.4%
Observations T = One week [2, 7]: Off-white
polymorphic form by XRPD after 1 week [2, 8]: No significant changes in polymorphic form
Observations T = One week [2, 9]: White solid
HPLC Purity T = One week [2, 10]: 99.4%
polymorphic form by XRPD after 1 week [2, 11]: No significant changes in polymorphic form
Observations T = 0 [2]: White solid
HPLC Purity T = 0 ([2]; dihydrochloride monohydrate): 99.1%
hygroscopicity by DVS ([3]; dihydrochloride monohydrate): hygroscopic above 50% RH
final dry mass higher than the initial dry mass ([3]; at 0% RH following sorption and de-sorption profile): 0.13%
largest hysteresis, difference in water uptake between sorption and de-sorption profile ([3]; at 50% RH): 0.78%
water uptake, sorption cycle ([3]; at 90% RH, dihydrochloride monohydrate): about 8.26%
mass decrease, desorption cycle [3, 12]: about 2.33%
post-DVS XRPD analysis ([3]; dihydrochloride monohydrate): No significant differences in polymorphic form
solubility [4, 13]: < 10000 µg/mL
solubility [4, 14]: < 10000 µg/mL
Solubility at 40° C. ([4]; 2-Propanol:water (10%)): Moderate solubility
solubility [4, 15]: < 10000 µg/mL
solubility [4, 16]: < 10000 µg/mL
solubility [4, 17]: ~25000 µg/mL
Solubility at 40° C. ([4]; Acetone:Water (20%)): High solubility
Solubility at 40° C. ([4]; Dimethylsulfoxide): very high solubility
Solubility at 40° C. ([4]; Methanol): Moderate solubility
Solubility at 40° C. ([4]; Water): very high solubility
solubility [4, 18]: < 10000 µg/mL
solubility [4, 19]: < 10000 µg/mL
solubility [4, 20]: ~85000 µg/mL
solubility [4, 21]: < 10000 µg/mL
solubility [4, 22]: < 10000 µg/mL
solubility [4, 23]: < 10000 µg/mL
solubility [4, 24]: > 200000 µg/mL
solubility [4, 25]: < 10000 µg/mL
solubility [4, 26]: < 10000 µg/mL
solubility [4, 27]: < 10000 µg/mL
solubility [4, 28]: < 10000 µg/mL
solubility [4, 29]: ~25000 µg/mL
solubility [4, 30]: < 10000 µg/mL
solubility [4, 31]: < 10000 µg/mL
solubility [4, 32]: < 10000 µg/mL
solubility [4, 33]: < 10000 µg/mL
solubility [4, 34]: < 10000 µg/mL
solubility [4, 35]: < 10000 µg/mL
solubility ([4]; water): > 200000 µg/mL

CN1CCC2(CC1)NCC(=O)N2Cc1ccccc1.Cl [HCl mono-salt, 1-benzyl-8-methyl-1,4,8-triazaspiro-[4.5]-decan-2-one monohydrochloride]
loss in purity by HPLC during stability studies ([2]; 1 week, all conditions): No significant loss in purity
polymorphic form by XRPD after 1 week ([2]; 40° C./75% RH): deliquesced
HPLC Purity T = One week ([2]; 40° C./75% RH, open vial): 99.4%
Observations T = One week ([2]; 40° C./75% RH, open vial): Clear liquid
polymorphic form by XRPD after 1 week ([2]; 80° C.): retained its polymorphic form
HPLC Purity T = One week ([2]; 80° C., open vial): 99.5%
Observations T = One week ([2]; 80° C., open vial): Off-white
HPLC Purity T = One week [2, 9]: 98.6%
Observations T = One week [2, 9]: White solid
polymorphic form by XRPD after 1 week ([2]; ambient): retained its polymorphic form
HPLC Purity T = 0 [2]: 98.8%
Observations T = 0 [2]: White solid
post-DVS XRPD analysis [3]: not consistent with any of the forms previously observed
hygroscopicity by DVS ([3]; monohydrochloride): very hygroscopic above 70% RH; also recorded: deliquesced at high RH
hysteresis [3]: 7.3%
water uptake, sorption cycle ([3]; at 70% RH): 2.55%
water uptake, sorption cycle ([3]; at 90% RH): 68.57%
mass decrease, desorption cycle ([3]; between 10% and 0% RH): 6.10%
mass decrease, desorption cycle ([3]; between 90% and 50% RH): 54.25%
water uptake, sorption cycle ([3]; until 60% RH): about 0.27%
solubility [4, 13]: < 10000 µg/mL
solubility [4, 14]: < 10000 µg/mL
Solubility at 40° C. ([4]; 2-Propanol:water (10%)): very high solubility
solubility [4, 15]: < 10000 µg/mL
solubility [4, 16]: < 10000 µg/mL
solubility [4, 17]: > 200000 µg/mL
Solubility at 40° C. ([4]; Acetone:Water (5%)): Some solubility
Solubility at 40° C. ([4]; Acetone:Water (20%)): very high solubility
Solubility at 40° C. ([4]; Dimethylacetamide): Some solubility
Solubility at 40° C. ([4]; Dimethylsulfoxide): high solubility
Solubility at 40° C. ([4]; Ethanol): Some solubility
Solubility at 40° C. ([4]; Methanol): very high solubility
Solubility at 40° C. ([4]; Water): very high solubility
solubility [4, 18]: < 10000 µg/mL
solubility [4, 19]: ~20000 µg/mL
solubility [4, 20]: > 200000 µg/mL
solubility [4, 21]: < 10000 µg/mL
solubility [4, 22]: < 10000 µg/mL
solubility [4, 23]: ~10000 µg/mL
solubility [4, 24]: ~105000 µg/mL
solubility [4, 25]: ~20000 µg/mL
solubility [4, 26]: < 10000 µg/mL
solubility [4, 27]: < 10000 µg/mL
solubility [4, 28]: < 10000 µg/mL
solubility [4, 29]: > 200000 µg/mL
solubility [4, 30]: < 10000 µg/mL
solubility [4, 31]: < 10000 µg/mL
solubility [4, 32]: < 10000 µg/mL
solubility [4, 33]: < 10000 µg/mL
solubility [4, 34]: < 10000 µg/mL
solubility [4, 35]: < 10000 µg/mL
solubility ([4]; water): > 200000 µg/mL
